Test results from patent publication US20070148193A1, “Lutein concentrate” (AQUANOVA GERMAN SOLUBILISATE TECHNOLOGIES (AGT) GM, priority 2003, published 2007).

Tests used:
[1] = cited from earlier work
[2] = system: LDL (low-density lipoprotein); assay: oxidation resistance of LDL (study by Milde and Elstner); assay type: biochemical; details: lutein as a powder or dissolved in ethanol vs. solubilizate
Excerpt: A study by J. Milde and E. F. Elstner (Technical University of Munich) has shown that lutein has no effect on the oxidation resistance of LDL (low-density lipoprotein) as a powder or dissolved in ethanol. […] The micellated lutein from the solubilizate is enriched in the LDL by a factor of 9 more (10 mole lutein/mole LDL).

CC1=C[C@H](O)CC(C)(C)[C@H]1/C=C/C(C)=C/C=C/C(C)=C/C=C/C=C(C)/C=C/C=C(C)/C=C/C1=C(C)C[C@@H](O)CC1(C)C [lutein]
solubility in water (background statement) [1]: practically insoluble in water | effect on the oxidation resistance of LDL [2]: no effect

lutein ester
solubility in water (background statement) [1]: practically insoluble in water
